For assay [1], the target named is T1, SETD2(1434-1711) (Homo sapiens, UniProt Q9BYW2).
T1 construct: SETD2 (1434-1711) Assay; catalogue N/A
T1 sequence (Q9BYW2 1434-1711): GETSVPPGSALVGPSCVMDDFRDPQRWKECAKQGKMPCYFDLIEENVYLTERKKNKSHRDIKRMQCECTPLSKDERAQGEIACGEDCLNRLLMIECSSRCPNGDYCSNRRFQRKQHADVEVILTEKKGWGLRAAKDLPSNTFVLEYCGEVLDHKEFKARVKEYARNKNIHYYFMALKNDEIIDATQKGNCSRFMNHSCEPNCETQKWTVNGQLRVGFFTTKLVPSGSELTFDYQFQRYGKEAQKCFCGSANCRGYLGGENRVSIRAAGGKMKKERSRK
The assay can be described thus: SETD2 (1434-1711) assay. The class given is biochemical. To be noted: read-out: SETD2 (1434-1711).

Assay [2] relates to H3K36me3 in A549 cells. The assay can be described thus: In-Cell Western (ICW) assay of SETD2 inhibitors (A549 assay). The class given is cell-based, human. The note with it: A549 cells, read-out: SETD2 A549. The method in brief:
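H3K36me3 In-Cell Western: cells exposed to compound for 3 days at 4,000 cells/well, 37° C. DRAQ5 (1:1000) marked cell number, with 700/800-channel Licor read-out.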

SMILES strings stand for the structures. Where two headings read alike, the source gives them in different places.

As for `Cc1ccc(F)c2cc(C(=O)Nc3cccc([C@H]4CCN5C(=O)CC[C@H]5C4)c3)[nH]c12` [compound 90], the IC50 in assay [1] amounted to 30 nM; in assay [2], 200 nM.

Take `CNC(=O)CCc1cccc(NC(=O)c2cc3c(F)ccc(C)c3[nH]2)c1` [compound 293]: the results for the IC50 in assay [1] and in assay [2] (Homo sapiens) were 400 nM and 1100 nM, respectively.

`Cc1ccc(F)c2cc(C(=O)NC3CCCC(c4nnc(CN(C)C)o4)C3)[nH]c12` (stereo not drawn) [compound 955]: the IC50 in assay [1] was determined as 200 nM; in assay [2] it was 800 nM.

Take `Cc1cccnc1C(CCC(=O)N1CCOCC1)NC(=O)c1cc2cccc(C)c2[nH]1` (stereo not drawn) [compound 420]: the figures for the IC50 in assay [1] and in assay [2] were 2400 nM and 3600 nM, respectively.

As to `Cc1ccc(F)c2cc(C(=O)Nc3cc(N4CCN(C)CC4)n4cncc4c3)[nH]c12` [compound 232], the IC50 in assay [1] is 60 nM; in assay [2] (Homo sapiens), 500 nM.

`Cc1ccc(F)c2cc(C(=O)Nc3cccc(-c4nncn4C)c3)[nH]c12` [compound 237]: the figures for the IC50 in assay [1] and in assay [2] were 100 nM and 600 nM, respectively.

For the molecule `Cc1ccc(F)c2cc(C(=O)N[C@@H]3CCC[C@@H](N4CCC5(CC4)CNC(=O)N5)C3)[nH]c12` [compound 941], the IC50 in assay [1] is 1300 nM; in assay [2] (Homo sapiens), greater than 2000 nM.

For `Cc1ccc(F)c2cc(C(=O)Nc3cc(F)cc(N4CCN(C5CC5)C(=O)C4)c3)[nH]c12` [compound 10], the IC50 in assay [1] came out at 10 nM; in assay [2] it was 40 nM.

With `Cc1ccc(F)c2cc(C(=O)Nc3cccc(CCN4CCN(C)CC4)c3)[nH]c12` [compound 244], the IC50 in assay [1] was found to be 80 nM; in assay [2], 600 nM.

In the case of `Cc1ccc(F)c2cc(C(=O)Nc3nnc(C4CCN(C)CC4)s3)[nH]c12` [compound 519], the IC50 turned out to be 50000 nM in assay [1] and 19300 nM in assay [2].

`Cc1ccc(F)c2cc(C(=O)NC3CCCC(N4CCC(N(C)C(=O)C(C)(C)O)C4)C3)[nH]c12` (stereo not drawn) [compound 1145]: the IC50 in assay [1] was 1800 nM; in assay [2], greater than 2000 nM.

Regarding `Cc1ccc(=O)[nH]c1C(NC(=O)c1cc2cccc(C)c2[nH]1)C1CC1` (stereo not drawn) [compound 506], the IC50 in assay [1] is 4900 nM; in assay [2], 15100 nM.

For the molecule `Cc1cc(CCNC(=O)Cc2cccnc2)cnc1C(NC(=O)c1cc2cccc(C)c2[nH]1)C1CC1` (stereo not drawn) [compound 447], the IC50 in assay [1] amounted to 2800 nM; in assay [2] it was 5500 nM.

Consider `COCC(=O)N(C)C1CCN(C2CCCC(NC(=O)c3cc4c(F)ccc(C)c4[nH]3)C2)C1` (stereo not drawn) [compound 1160], for which the IC50 is 4300 nM in assay [1] and greater than 2000 nM in assay [2].

Regarding `Cc1ccc(F)c2cc(C(=O)Nc3cccc(N4CCC(N5CC(O)C5)C4)c3)[nH]c12` (stereo not drawn) [compound 174], the IC50 is 50 nM in assay [1] and 300 nM in assay [2] (Homo sapiens).

For the molecule `Cc1ccc(F)c2cc(C(=O)NC3CCCC(N4CCn5nc(C(F)(F)F)nc5C4)C3)[nH]c12` (stereo not drawn) [compound 1066], the IC50 in assay [1] is 5500 nM; in assay [2] it was greater than 2000 nM.

Consider `Cc1cc(C(=O)N[C@H]2CC[C@H](N)CC2)cnc1C(NC(=O)c1cc2cccc(C)c2[nH]1)C1CC1` (stereo partly drawn) [compound 496], for which the IC50 came out at 400 nM in assay [1] and 13400 nM in assay [2].

As to `Cc1ccc(F)c2cc(C(=O)N[C@@H]3CCC[C@@H](N4CCC5(CC4)CNC(=O)C5)C3)[nH]c12` [compound 929], the IC50 was 1700 nM in assay [1] and greater than 2000 nM in assay [2] (Homo sapiens).

`Cc1ccc(F)c2cc(C(=O)N[C@@H]3CCC[C@H](N4CCCC5(CCNC5=O)C4)C3)[nH]c12` (stereo partly drawn) [compound 882]: the IC50 in assay [1] was found to be 100 nM; in assay [2] (Homo sapiens), 700 nM.

With `Cc1cc(C(=O)N[C@@H]2CC[C@@H]2N)cnc1C(NC(=O)c1cc2cccc(C)c2[nH]1)C1CC1` (stereo partly drawn) [compound 584], the IC50 is 33700 nM in assay [1] and greater than 25000 nM in assay [2] (Homo sapiens).

As for `Cc1ccc(F)c2cc(C(=O)Nc3cccc(N4CCC(O)(CN(C)C)CC4)c3)[nH]c12` [compound 254], the IC50 in assay [1] came to 60 nM; in assay [2] (Homo sapiens) it was 600 nM.

As for `Cc1ccc(F)c2cc(C(=O)N[C@@H]3CCC[C@@H](N4CCn5c(cccc5=O)C4)C3)[nH]c12` [compound 1143], the IC50 was 1900 nM in assay [1] and greater than 2000 nM in assay [2].

For `Cc1ccc(F)c2cc(C(=O)Nc3cccc(N4CCN(C5CCOCC5)CC4)c3)[nH]c12` [compound 207], the IC50 came to 100 nM in assay [1] and 400 nM in assay [2].

As for `CCC(=O)N1CCN(C2CCCC(NC(=O)c3cc4c(F)ccc(C)c4[nH]3)C2)CC1C(F)(F)F` (stereo not drawn) [compound 1168], the IC50 was 1300 nM in assay [1] and greater than 2000 nM in assay [2].

Regarding `Cc1ccc(F)c2cc(C(=O)N[C@@H]3CCC[C@@H](N4CC5(CNC(=O)C5)C4)C3)[nH]c12` [compound 898], the IC50 was 4300 nM in assay [1] and greater than 2000 nM in assay [2] (Homo sapiens).

For `Cc1ccc(F)c2cc(C(=O)NC3CCCC(N4CCn5cnnc5C4)C3)[nH]c12` (stereo not drawn) [compound 860], the IC50 in assay [1] came to 100 nM; in assay [2], 1600 nM.

Consider `Cc1ccc(F)c2cc(C(=O)Nc3cccc(N4CCC(N(C)C)(C(F)(F)F)CC4)c3)[nH]c12` [compound 375], for which the IC50 in assay [1] was greater than 10000 nM; in assay [2], greater than 2000 nM.

Turning to `Cc1ccc(F)c2cc(C(=O)N[C@@H]3CCC[C@H](N4CCn5nc(C(F)(F)F)nc5C4)C3)[nH]c12` [compound 1031], the IC50 in assay [1] worked out at 200 nM; in assay [2] (Homo sapiens), 1400 nM.

As for `Cc1ccc(F)c2cc(C(=O)N[C@@H]3CCC[C@H](N4CCN(C(=O)C(C)C)C(C(F)(F)F)C4)C3)[nH]c12` (stereo partly drawn) [compound 1112], the IC50 in assay [1] and in assay [2] (Homo sapiens) was 20 nM throughout.

Turning to `Cc1ccc(F)c2cc(C(=O)Nc3cccc(N4CCC5(CC4)CN(CC(F)(F)F)C5)c3)[nH]c12` [compound 110], the IC50 in assay [1] turned out to be 100 nM; in assay [2], 200 nM.

Consider `Cc1cncnc1C(NC(=O)c1cc2cccc(C)c2[nH]1)C1CC1` (stereo not drawn) [compound 493], for which the IC50 in assay [1] was greater than 50000 nM; in assay [2] (Homo sapiens) it was 13100 nM.

`CN/C(=C\[N+](=O)[O-])N1CCN([C@H]2CCC[C@@H](NC(=O)c3cc4c(F)ccc(C)c4[nH]3)C2)CC1` [compound 1115]: the IC50 in assay [1] amounted to 30 nM; in assay [2] (Homo sapiens), 200 nM.

Take `Cc1ccc(F)c2cc(C(=O)N[C@@H]3CCC[C@H](N4CCn5c(cn(C)c5=O)C4)C3)[nH]c12` [compound 1057]: the IC50 amounted to 40 nM in assay [1] and 100 nM in assay [2] (Homo sapiens).

For the molecule `Cc1ccc(F)c2cc(C(=O)Nc3cccc(-c4nnc(CN(C)C)s4)c3)[nH]c12` [compound 132], the IC50 was determined as 50 nM in assay [1] and 300 nM in assay [2] (Homo sapiens).

For `Cc1ccc(F)c2cc(C(=O)Nc3cc(F)cc(N4CCC(N5CCN(C)C(=O)C5)C4)c3)[nH]c12` (stereo not drawn) [compound 17], the IC50 in assay [1] stood at 9 nM; in assay [2], 50 nM.

In the case of `Cc1ccc(F)c2cc(C(=O)NC3CCCC(N4CCN5C(=O)COCC5C4)C3)[nH]c12` (stereo not drawn) [compound 1141], the results for the IC50 in assay [1] and in assay [2] were 400 nM and 1300 nM, respectively.

On to `Cc1ccc(F)c2cc(C(=O)Nc3cccc(N4CCC(C)(O)CC4)c3)[nH]c12` [compound 87], for which the values for the IC50 in assay [1] and in assay [2] (Homo sapiens) were 100 nM and 200 nM, respectively.

Take `COCC(=O)N1CCN([C@H]2CCC[C@@H](NC(=O)c3cc4c(F)ccc(C)c4[nH]3)C2)CC1` [compound 846]: the figures for the IC50 in assay [1] and in assay [2] were 20 nM and 100 nM, respectively.

For `Cc1ccc(F)c2cc(C(=O)Nc3cccc(N(C)C4CCNCC4)c3)[nH]c12` [compound 325], the IC50 in assay [1] is 70 nM; in assay [2] (Homo sapiens), 1500 nM.

(Values after US12116358B2, “Substituted indoles and methods of use thereof” (EPIZYME, INC., priority 2018, dated 2024).)
